No end group written: not given here.
Tested on: myocardial I-R injury in C57BL/6 mice
Experiment: Myocardial I-R in mice: systemic inflammation after 48 h reperfusion
Format: in vivo, mouse
Description: Male C57BL/6 mice were breed and housed in the AMREP Animal Centre and maintained under a 12 h light/dark cycle. After anaesthesia (i.p., ketamine 80 mg/kg, xylazine 20 mg/kg and atropine 1.2 mg/kg), mice were randomly assigned to 24 h, 48 h and 7 days reperfusion groups and underwent reversible left arterial descending (LAD) ligation as described (Gao XM, 2011; JMCC, 50; Gao XM, 2000, JMCC). Following sedation, mice were intubated and ventilated (Harvard apparatus, MA, USA) with room air mixed with oxygen (tidal volume 0.25 mL, 150 breath/min), and placed on a heating pad. A left thoractomy will be made via the ˜third intercostal space, where the beating heart was located.
The LAD was reversibly ligated using 7-0 silk suture with a slipknot enclosing two releasing rings. Regional ischaemia was confirmed by pale colour of the ligated area. Air was then evacuated from the chest, the cavity was closed and normal respiration was restored. After 40-60 min of ischaemia, blood flow through the left coronary artery was re-established by releasing the slipknot. Sham-operated mice underwent identical surgical procedures except the coronary arteries were not ligated. Three cohorts of mice were scheduled. Cohort 1 was subjected to 40 min ischaemic-24 h reperfusion for the assessment of cardiac necrosis. Cohort 2 was subjected to 60 min occlusion with 48 h reperfusion for the quantification of cardiac and systemic inflammation. The last cohort was subjected to 7 d reperfusion and early cardiac fibrosis was assessed.
Treatment with study drugs: Animals were randomly assigned to different groups and all treatments were administrated 5 min prior to reperfusion of the LAD. The peptide Ac2-26 (1 mg kg^−1) (Chemieliva, Chongqing, China) and its vehicle (10% dimethyl sulfoxide (DMSO) in saline) were intravenously (i.v.) injected via the tail vein. […] Mice then received drug or vehicle injections daily until the experimental endpoint. The two different vehicles groups reflect different study drug solubility and administration routes.
Assessment of systemic inflammation: Blood samples collected from mice subjected to 60 min ischaemia and 48 h reperfusion were diluted 1:20 into 2% acetic acid to lyse the red blood cells for total WBC counting, using a haemocytometer. Blood smears were stained using a hemacolor staining kit (Merck millipore, Melbourne, Australia) and then examined under 60× magnification using an Olympus Biological CHS microscope (Olympus Inc., Tokyo, Japan) for manual counting of neutrophils, lymphocytes and monocytes per 100 WBCs.
Animal Surgery: Adult C57BL/6 mice were randomly assigned to myocardial ischemia-reperfusion (I-R) injury or sham in vivo. Anesthetized mice (ketamine 80 mg/kg, xylazine 20 mg/kg and atropine 1.2 mg/kg, KXA, i.p.) underwent reversible left arterial descending (LAD) ligation as described (Gao et al. 2000 & Gao et al. 2011). Following sedation, mice were intubated and ventilated (Harvard apparatus, MA, USA) with room air mixed with oxygen (tidal volume 0.25 mL, 150 breaths/min), and placed on a heating pad. A left thoractomy was be made around the third intercostal space, where the beating heart was located. The LAD was reversibly ligated using 7-0 silk suture with a slipknot enclosing two releasing rings. Regional ischemia was confirmed by pale color of the ligated area. Air was then evacuated from the chest, the cavity closed and normal respiration restored. Blood flow through the left coronary artery was subsequently re-established at the end of the ischemic period (i.e. reperfusion) by releasing the slipknot. Three distinct cohorts of mice were studied. Cohorts 1 and 2 were subjected to 40 mins ischemia with either 24 h or 7 days reperfusion, optimal timepoints for the assessment of cardiac necrosis and early cardiac remodeling in vivo, respectively. Cohort 3 was subjected to 60 mins LAD occlusion with 48 h reperfusion, for the quantification of cardiac and systemic inflammation. […]

[1] = 48 h reperfusion, listed as Cmpd17b

Compound | Effect on systemic inflammation / early inflammatory response 48 h post I-R (50 mg/kg i.p.) | Effect on circulating lymphocytes (48 h reperfusion) | Effect on circulating monocytes (48 h reperfusion) | Effect on total circulating WBC (48 h reperfusion) | Effect on circulating IL-1β (48 h reperfusion) | Effect on circulating neutrophils (48 h reperfusion) | Effect on circulating lymphocytes [1] | Effect on total circulating WBC [1]
CC(C)C1C(NC(=O)Nc2ccc(Cl)cc2)C(=O)N(c2ccccc2)N1C (centres unmarked) [BIDI-002] | not | significantly increased | significantly increased |  |  |  |  | 
Ac2-26: Annexin-A1 N-terminal peptide, peptide ANX-A1 mimetic (Ac-AMVSEFLKQAWFIENEEQEYVQTVK; UniProt P04083 2-26, looked up, fragment) |  |  |  | did not significantly alter |  |  |  | 
COc1cccc(Cc2cc(C)nn(C(C)C(=O)Nc3ccc(Br)cc3)c2=O)c1 (centres unmarked) [BIDI-001, N-(4-bromophenyl)-2-[5-(3-methoxybenzyl)-3-methyl-6-oxo-6H-pyridazin-1-yl]-propionamide] |  | tended to reduce | without affecting | tended to reduce | significantly blunted | absent | significantly blunted | absent

Source: patent US10328075B2, “Method of treatment and compounds for use therein” (Baker Heart and Diabetes Institute, priority 2015, dated 2019)
